Assay results published in patent US20210130401A1, “PEPTIDOMIMETIC INHIBITORS OF THE WDR5-MLL INTERACTION” (THE REGENTS OF THE UNIVERSITY OF MICHIGAN, priority 2017, published 2021).
Like-named read-outs stand apart in the source and are kept apart here. Starred links: 1 amine or outer side, 2 acyl side, 3 side chain; linkers in the order of their positions; H or OH if unused. Positions of bridges follow the written chain, without caps; N, C: chain ends. Non-standard residues stand in square brackets, D forms with d. Residues, ends and D or L forms follow the SMILES beside them. *: point of attachment. dαMeDab = C[C@](CCN[*:3])(N[*:1])C(=O)[*:2]; Arg(Me2s) = CN=C(NC)NCCC[C@H](N)C(=O)O; Arg(Me) = CNC(=N)NCCC[C@H](N)C(=O)O; d(αMeK) = C[C@@](N)(CCCCN)C(=O)O; dPhg = N[C@@H](C(=O)O)c1ccccc1; Phg = N[C@H](C(=O)O)c1ccccc1; αMeK = C[C@](N)(CCCCN)C(=O)O; Isobutyryl = CC(C)C(=O)*; dAbu = CC[C@@H](N)C(=O)O; Abu = CC[C@H](N)C(=O)O

Columns and labels:
WDR5 = molecular target: T1, WDR5 (Homo sapiens, UniProt P61964); test: fluorescence polarization (FP) based competitive binding assay to WDR5 protein
T1 construct: N-terminal His-tagged WDR5 protein (residues 24-334), named WDR5Δ23; made in house; host or cells: E. coli Rosetta 2 (DE3)
Method: The plates were incubated at room temperature on a shaker for 3h, and then the mP values were measured using the Tecan Infinite M-1000 plate reader (Tecan U.S., Research Triangle Park, N.C.).

[1] = tested on: MOLM-13 leukemia cells carrying MLL-AF9 fusion; test: cell viability assay (WST-8), MOLM-13; type: cell-based; settings: Homo sapiens, MOLM-13, 96 h, read-out: Cell Growth Inhibition IC50 (μM) MOLM-13
[2] = tested on: MV4;11 leukemia cells carrying MLL-AF4 fusion; test: cell viability assay (WST-8), MV4;11; type: cell-based; settings: Homo sapiens, MV4-11, 96 h, read-out: Cell Growth Inhibition IC50 (μM) MV-4-11
Method: To assess cell viability, MOLM-13 leukemia cells carrying MLL-AF9 fusion, MV4;11 leukemia cells carrying MLL-AF4 fusion or HL-60 leukemia cells carrying no MLL fusion were seeded 1×10^4 cell/well in 96-well plates and treated with an inhibitor for 4 days at different concentrations, in culture media containing 0.2% DMSO as the final concentration. Cell viability was determined using the WST-8 cell proliferation assay kit (Dojindo Molecular Technologies) according to manufacturer's instructions. Three independent experiments in triplicates were performed.

[3] = tested on: HL-60 leukemia cells carrying no MLL fusion; test: cell viability assay (WST-8), HL-60; type: cell-based; settings: Homo sapiens, HL-60, 96 h, read-out: Cell Growth Inhibition IC50 (μM) HL-60
Method: Cell viability was determined using the WST-8 cell proliferation assay kit (Dojindo Molecular Technologies) according to manufacturer's instructions. Three independent experiments in triplicates were performed.

[4] = amide bond, 14-membered ring, HATU/DIEA, DMF, with chain assembly

Question: Which Ki (WDR5; calculated from IC50 by published equation, read-out: Binding Affinity to WDR5 Ki ± SD) does the source give for `CC[C@@H]1NC(=O)[C@H](CCCNC(=N)NC)NC(=O)[C@](C)(NC(=O)C(C)C)CCNC(=O)[C@H](c2ccccc2)NC1=O` [Cpd. No. 62, N-((3S,6S,9S,12R)-6-ethyl-12-methyl-9-(3-(3-methylguanidino)propyl)-2,5,8,11-tetraoxo-3-phenyl-1,4,7,10-tetraazacyclotetradecan-12-yl)isobutyramide] (Isobutyryl-[dαMeDab][Arg(Me)][Abu][Phg]; lactam 1-C) here?
Answer: < 0.001 µM

Question: And the IC50 (WDR5; read-out: Binding Affinity to WDR5 IC50 ± SD)?
Answer: 0.002 ± 0.0001 µM

Question: What about the IC50 ([1]; 4 days treatment) of the same compound?
Answer: 14.3 ± 0.9 µM

Question: And the IC50 ([2]; 4 days treatment)?
Answer: 35 ± 4.4 µM

Question: For `CC[C@@H]1NC(=O)[C@H](CCCN/C(=N/C)NC)NC(=O)[C@](C)(NC(=O)C(C)C)CCCCNC(=O)[C@@H](c2ccccc2)NC1=O` [Cpd. No. 69, N-((3R,6S,9S,12R)-9-(3-((E)-2,3-dimethylguanidino)propyl)-6-ethyl-12-methyl-2,5,8,11-tetraoxo-3-phenyl-1,4,7,10-tetraazacyclohexadecan-12-yl)isobutyramide] (Isobutyryl-[d(αMeK)][Arg(Me2s)][Abu][dPhg]; lactam 1-C), which IC50 (WDR5) is on record?
Answer: 0.0024 ± 0.0007 µM

Question: What about the Ki (WDR5) of the same compound?
Answer: < 0.001 µM

Question: And the IC50 [1]?
Answer: 31.5 ± 9.8 µM

Question: And the IC50 [2]?
Answer: 15.2 ± 2.9 µM

Question: And the IC50 [3]?
Answer: 84.8 ± 13.2 µM

Question: Which IC50 [1] does the source give for `CC[C@H]1NC(=O)[C@@H](CCCNC(=N)N)NC(=O)[C@@](C)(NC(=O)C(C)C)CCCCNC(=O)[C@H](c2ccccc2)NC1=O` [Cpd. No. 70, N-((3S,6R,9R,12S)-6-ethyl-9-(3-guanidinopropyl)-12-methyl-2,5,8,11-tetraoxo-3-phenyl-1,4,7,10-tetraazacyclohexadecan-12-yl)isobutyramide] (Isobutyryl-[αMeK][dR][dAbu][Phg]; lactam 1-C) here?
Answer: > 100 µM

Question: And the IC50 [2]?
Answer: > 100 µM

Question: And the IC50 [3]?
Answer: > 100 µM

Question: Which ring closure, yield after HPLC (from (R)—N-((6S,9S,12R)-12-(4-chlorophenyl)-9-ethyl-1-imino-14-methyl-7,10,13-trioxo-1-(2,2,4,6,7-pentamethyl-2,3-dihydrobenzofuran-5-sulfonamido)-2,8,11,14-tetraazaheptadec-16-en-6-yl)-2-isobutyramido-2-methylpent-4-enamide, rcm bond, 16-membered ring, Hoveyda-Grubbs II (0.5+0.5 eq), CH2Cl2, 45.0 °C, 3 steps) does the source give for `CC[C@@H]1NC(=O)[C@H](CCCNC(=N)NS(=O)(=O)c2c(C)c(C)c3c(c2C)CC(C)(C)O3)NC(=O)[C@](C)(NC(=O)C(C)C)CC=CCN(C)C(=O)[C@@H](c2ccc(Cl)cc2)NC1=O` here?
Answer: 11%

Question: With `CC[C@@H]1NC(=O)[C@H](CCCNC(=N)NS(=O)(=O)c2c(C)c(C)c3c(c2C)CC(C)(C)O3)NC(=O)[C@](C)(NC(=O)C(C)C)CC=CCN(C)C(=O)[C@@H](c2ccccc2)NC1=O` as the compound, how does the ring closure, yield after HPLC (from (R)—N-((6S,9S,12R)-9-ethyl-1-imino-14-methyl-7,10,13-trioxo-1-(2,2,4,6,7-pentamethyl-2,3-dihydrobenzofuran-5-sulfonamido)-12-phenyl-2,8,11,14-tetraazaheptadec-16-en-6-yl)-2-isobutyramido-2-methylpent-4-enamide, rcm bond, 16-membered ring, Hoveyda-Grubbs II (0.5+0.5 eq), CH2Cl2, 45.0 °C, 3 steps) read?
Answer: 18%

Question: For `CC[C@@H]1NC(=O)[C@H](CCCNC(=N)N)NC(=O)[C@](C)(NC(=O)C(C)C)CCCCNC(=O)[C@@H](c2ccccc2)NC1=O` [Cpd. No. 64, N-((3R,6S,9S,12R)-6-ethyl-9-(3-guanidinopropyl)-12-methyl-2,5,8,11-tetraoxo-3-phenyl-1,4,7,10-tetraazacyclohexadecan-12-yl)isobutyramide] (Isobutyryl-[d(αMeK)]R[Abu][dPhg]; lactam 1-C), which IC50 [3] is on record?
Answer: > 100 µM

Question: For “N-((3R,6S,9S,12R)-6-ethyl-9-(3-guanidinopropyl)-2,5,8,11-tetraoxo-3-phenyl-1,4,7,10-tetraazacyclopentadecan-12-yl)isobutyramide”, which ring closure, yield after HPLC (amide bond, 15-membered ring, HATU/DIEA, DMF, with chain assembly) is on record?
Answer: 21.5%

Question: Which ring closure, yield after HPLC [4] does the source give for “N-((3R,6S,9S,12R)-6-ethyl-9-(3-guanidinopropyl)-2,5,8,11-tetraoxo-3-phenyl-1,4,7,10-tetraazacyclotetradecan-12-yl)isobutyramide” here?
Answer: 21.7%

Question: With “N-((3R,6S,9S,12R)-6-ethyl-12-methyl-9-(3-(3-methylguanidino)propyl)-2,5,8,11-tetraoxo-3-phenyl-1,4,7,10-tetraazacyclotetradecan-12-yl)isobutyramide” as the compound, how does the ring closure, yield after HPLC [4] read?
Answer: 15.4%

Question: Which ring closure, yield after HPLC [4] does the source give for “N-((3S,6S,9S,12R)-6-ethyl-12-methyl-9-(3-(3-methylguanidino)propyl)-2,5,8,11-tetraoxo-3-phenyl-1,4,7,10-tetraazacyclotetradecan-12-yl)isobutyramide” here?
Answer: 7%
